Reference: patent US11498923B2 (Merck Sharp & Dohme Corp., priority 2017, dated 2022)

biological target: T1, human A2a receptor (Homo sapiens, UniProt P29274); assay: A2a receptor competition binding assay (Scintillation Proximity); settings: membranes from HEK293 cells expressing human A2a receptor; 0.5 nM tritiated ligand; Cheng-Prusoff; read-out: A2a Ki
T1 construct: purchased Perkin-Elmer RBHA2AM400UA; host or cells: HEK293 cells, used as a membrane preparation
How it was run: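 HEK293 membranes bearing the human receptor, pretreated with adenosine deaminase, competed against 0.5 nM tritiated pyrazolotriazolopyrimidine antagonist with compound at 3000–0.15 nM final in DPBS plus 10 mM MgCl2. SPA bead readout after 1 h at room temperature; Ki from EC50 via Cheng-Prusoff.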

T1 sequence (P29274 whole entry): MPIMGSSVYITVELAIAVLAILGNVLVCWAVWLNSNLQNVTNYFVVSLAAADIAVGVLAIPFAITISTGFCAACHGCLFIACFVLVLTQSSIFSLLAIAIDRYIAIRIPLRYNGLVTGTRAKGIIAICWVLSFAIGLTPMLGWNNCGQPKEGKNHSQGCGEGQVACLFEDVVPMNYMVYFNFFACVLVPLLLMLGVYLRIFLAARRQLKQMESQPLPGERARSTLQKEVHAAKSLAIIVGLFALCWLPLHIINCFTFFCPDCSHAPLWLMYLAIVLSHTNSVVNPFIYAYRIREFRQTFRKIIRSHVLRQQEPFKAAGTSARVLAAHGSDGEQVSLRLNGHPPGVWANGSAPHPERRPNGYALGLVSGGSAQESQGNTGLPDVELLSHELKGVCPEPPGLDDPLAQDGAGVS

Row | Structure (SMILES) | Ki [nM]
1 | COc1cccc2c1nc(N)n1cc(C(=O)N3C[C@@H]4[C@@H]5CC[C@@H](C5)[C@@H]4C3)nc21 [Ex-236, (5-amino-7-methoxyimidazo[1,2-c]quinazolin-2-yl)((3aR,4R,7S,7aS)-octahydro-2H-4,7-methanoisoindol-2-yl)methanone] | 6.4
2 | Nc1nc2c(F)cccc2c2nc(C(=O)NCc3ccccn3)cn12 [Ex-298, 5-amino-7-fluoro-N-(pyridin-2-ylmethyl)imidazo[1,2-c]quinazoline-2-carboxamide] | 14
3 | Nc1nc2c(F)cccc2c2nc(CN3CCOCC3)cn12 [Ex-115, 7-fluoro-2-(morpholinomethyl) imidazo[1,2-c] quinazolin-5-amine] | 380
4 | Nc1nc2c(F)cccc2c2nc(Cc3ccccc3CN3CCOCC3)cn12 [Ex-35, 7-fluoro-2-(2-(morpholinomethyl)benzyl)imidazo[1,2-c]quinazolin-5-amine] | 6
5 | CC(c1ccc(-c2cccc(Cc3cn4c(N)nc5c(F)cccc5c4n3)c2)cc1)N1CCOCC1 (stereo not drawn) [Ex-75, 7-fluoro-2-((4′-(l-morpholinoethyl)-[1,1′-biphenyl]-3-yl)methyl)imidazo[1,2-c]quinazolin-5-amine] | 6
6 | COc1cccc2c1nc(N)n1cc(Cc3ccccc3)nc21 [Ex-01, 2-benzyl-7-methoxyimidazo[1,2-c]quinazolin-5-amine] | 0.4
7 | Nc1nc2c(F)cccc2c2nc(C(=O)NCc3ccccc3CN3CCOCC3)cn12 [Ex-255, 5-amino-7-fluoro-N-(2-(morpholinomethyl)benzyl) imidazo[1,2-c]quinazoline-2-carboxamide] | 6.1
8 | COc1cccc2c1nc(N)n1cc(Cc3cc(C(F)(F)F)ccc3N3CCOCC3)nc21 [Ex-30, 7-methoxy-2-(2-morpholino-5-(trifluoromethyl)benzyl)imidazo[1,2-c]quinazolin-5-amine] | 38
9 | Nc1nc2c(F)cccc2c2nc(CCN3CCN(c4ccccn4)CC3)cn12 [Ex-138] | 28
10 | COc1cccc2c1nc(N)n1cc(C(=O)N3CC[C@@H](OC)C3)nc21 [Ex-213, (R)-(5-amino-7-methoxyimidazo[1,2-c]quinazolin-2-yl)(3-methoxypyrrolidin-1-yl)methanone] | 10
11 | Nc1nc2c(F)cccc2c2nc(CN3CCOc4cccnc43)cn12 [Ex-118, 2-((2,3-dihydro-4H-pyrido[3,2-b][1,4]oxazin-4-yl)methyl)-7-fluoroimidazo[1,2-c]quinazolin-5-amine] | 3.9
12 | COc1cccc2c1nc(N)n1cc(C(=O)N3CCC4(CC3)COC4)nc21 [Ex-206, (5-amino-7-methoxyimidazo[1,2-c]quinazolin-2-yl)(2-oxa-7-azaspiro[3.5]nonan-7-yl)methanone] | 110
13 | COC(=O)C1CCN(C(=O)c2cn3c(N)nc4c(OC)cccc4c3n2)CC1 [Ex-226, methyl 1-(5-amino-7-methoxyimidazo[1,2-c]quinazoline-2-carbonyl]piperidine-4-carboxylate] | 29
14 | COc1cccc2c1nc(N)n1cc(Cc3ccc(N4CCN(C(C)=O)CC4)cc3)nc21 [Ex-44, 1-(4-(4-((5-amino-7-methoxyimidazo[1,2-c]quinazolin-2-yl)methyl)phenyl)piperazin-1-yl)ethan-1-one] | 14
15 | Nc1nc2c(F)cccc2c2nc(C(=O)N3CCc4cc(NC(=O)c5ccccn5)ccc4C3)cn12 [Ex-286, N-(2-(5-amino-7-fluoroimidazo[1,2-c]quinazoline-2-carbonyl)-1,2,3,4-tetrahydroisoquinolin-6-yl)picolinamide] | 19
16 | Nc1nc2c(F)cccc2c2nc(CN3CCC(Cc4ccccc4)CC3)cn12 [Ex-114, 2-((4-benzylpiperidin-1-yl)methyl)-7-fluoroimidazo[1,2-c]quinazolin-5-amine] | 130
17 | Nc1nc2c(F)cccc2c2nc(Cc3ccc(C(=O)Nc4ccccn4)cc3)cn12 [Ex-84, 4-((5-amino-7-fluoroimidazo[1,2-c]quinazolin-2-yl)methyl)-N-(pyridin-2-yl)benzamide] | 3.8
18 | COc1cccc2c1nc(N)n1cc(C(=O)N3CCCC4(CCCO4)C3)nc21 (stereo not drawn) [Ex-205, (5-amino-7-methoxyimidazo[1,2-c]quinazolin-2-yl)(1-oxa-7-azaspiro[4.5]decan-7-yl)methanone] | 13
19 | COc1cccc2c1nc(N)n1cc(C(=O)N3CCCC(OC)(OC)C3)nc21 [Ex-232, (5-amino-7-methoxyimidazo[1,2-c]quinazolin-2-yl)(3,3-dimethoxypiperidin-1-yl)methanone] | 18
20 | COc1cccc2c1nc(N)n1cc(C(=O)N3CCOCC3CC(C)C)nc21 (stereo not drawn) [Ex-186, (5-amino-7-methoxyimidazo[1,2-c]quinazolin-2-yl)(3-isobutylmorpholino) methanone] | 53.8

Other lines, results leading:

Row | Ki [nM] | Structure (SMILES)
21 | 210 | Nc1nc2c(F)cccc2c2nc(CN3CCCN(c4ccccn4)CC3)cn12 [Ex-119, 7-fluoro-2-((4-(pyridin-2-yl)-1,4-diazepan-1-yl)methyl)imidazo[1,2-c]quinazolin-5-amine]
22 | 3.7 | COc1cccc2c1nc(N)n1cc(CN3CCc4ccccc4C3)nc21 [Ex-121, 2-((3,4-dihydroisoquinolin-2(1H)-yl)methyl)-7-methoxyimidazo[1,2-c]quinazolin-5-amine]
23 | 21 | Nc1nc2c(F)cccc2c2nc(C(=O)N3CCc4cc(CC(=O)Nc5ccccn5)ccc4C3)cn12 [Ex-283, 2-(2-(5-amino-7-fluoroimidazo[1,2-c]quinazoline-2-carbonyl)-1,2,3,4-tetrahydroisoquinolin-6-yl)-N-(pyridin-2-yl)acetamide]
24 | 4.5 | COc1cccc2c1nc(N)n1cc(C(=O)N3CCCC(C)(C)C3)nc21 [Ex-189, (5-amino-7-methoxyimidazo[1,2-c]quinazolin-2-yl)(3,3-dimethylpiperidin-1-yl)methanone]
25 | 6.1 | COc1cccc2c1nc(N)n1cc(C(=O)N3C(C)CCC3C)nc21 (stereo not drawn) [Ex-210, (5-amino-7-methoxyimidazo[1,2-c]quinazolin-2-yl)(2,5-dimethylpyrrolidin-1-yl)methanone]
26 | > 2200 | CCn1cc(-c2cccc3c2nc(N)n2cc(CN(C)Cc4cccc(Cl)c4)nc32)cn1 [Ex-151, 2-(((3-chlorobenzyl)-(methyl)amino)-methyl)-7-(1-ethyl-1H-pyrazol-4-yl)imidazo[1,2-c]-quinazolin-5-amine]
27 | 4.6 | COc1cccc2c1nc(N)n1cc(C(=O)N3CCCC4(CCC4)C3)nc21 [Ex-200, (5-amino-7-methoxyimidazo[1,2-c]quinazolin-2-yl)(6-azaspiro[3.5]nonan-6-yl)methanone]
28 | 27 | Nc1nc2c(F)cccc2c2nc(Cc3ccc(-c4cnccn4)cc3)cn12 [Ex-82, 7-fluoro-2-(4-(pyrazin-2-yl)benzyl)imidazo[1,2-c]quinazolin-5-amine]
29 | 84 | Nc1nc2c(F)cccc2c2nc(Cc3ccc(C(=O)NCC(c4cccnc4)N4CCOCC4)cc3)cn12 (stereo not drawn) [Ex-88, 4-((5-amino-7-fluoroimidazo[1,2-c]quinazolin-2-yl)methyl)-N-(2-morpholino-2-(pyridin-3-yl)ethyl)benzamide]
30 | 120 | CCN1CCC(Cc2cn3c(N)nc4c(F)cccc4c3n2)CC1 [Ex-307, 2-((1-ethyl-piperidin-4-yl)methyl)-7-fluoro-imidazo[1,2-c]quina-zolin-5-amine]
31 | 1.5 | COc1cccc2c1nc(N)n1cc(C(=O)NCc3cccc4cccnc34)nc21 [Ex-157, 5-amino-7-methoxy-N-(quinolin-8-ylmethyl)imidazo[1,2-c]quinazoline-2-carboxamide]
32 | 10 | COc1cccc2c1nc(N)n1cc(C(=O)N3CCCC4(C3)OCCO4)nc21 [Ex-231, (5-amino-7-methoxyimidazo[1,2-c]quinazolin-2-yl)(1,4-dioxa-7-azaspiro[4.5]decan-7-yl)methanone]
33 | 2.1 | COc1cccc2c1nc(N)n1cc(Cc3c(Cl)cccc3Cl)nc21 [Ex-23, 2-(2,6-dichlorobenzyl)-7-methoxyimidazo[1,2-c]quinazolin-5-amine]
34 | 1000 | Nc1nc2ccccc2c2nc(CN3CCN(c4ccc(F)cc4F)CC3)cn12 [Ex-116, 2-((4-(2,4-difluorophenyl)piperazin-1-yl)methyl) imidazo[1,2-c] quinazolin-5-amine]
35 | 10000 | Nc1nc2ccccc2c2nc(C(=O)N3CCN(c4ccc(F)cc4F)CC3)cn12 [Ex-165, (5-aminoimidazo[1,2-c]quinazolin-2-yl)(4-(2,4-difluorophenyl)piperazin-1-yl)methanone]
36 | 2.1 | COc1cccc2c1nc(N)n1cc(Cc3cccc(N4CCOCC4)c3)nc21 [Ex-28, 7-methoxy-2-(3-morpholinobenzyl)imidazo[1,2-c]quinazolin-5-amine]
37 | 12 | COc1cccc2c1nc(N)n1cc(C(=O)N3CCCC4(CCCCO4)C3)nc21 (stereo not drawn) [Ex-204, (5-amino-7-methoxyimidazo[1,2-c]quinazolin-2-yl)(1-oxa-8-azaspiro[5.5]undecan-8-yl)methanone]
38 | 33 | Nc1nc2c(F)cccc2c2nc(COc3ccccc3)cn12 [Ex-146, 7-fluoro-2-(phenoxymethyl)imidazo[1,2-c]quinazolin-5-amine]
39 | 5.8 | Nc1nc2ccccc2c2nc(Cc3ccccc3)cn12 [Ex-02, 2-benzylimidazo[1,2-c]quinazolin-5-amine]
40 | 38 | Nc1nc2c(F)cccc2c2nc(CN3Cc4ccc(Br)cc4C3)cn12 [Ex-126, 2-((5-bromoisoindolin-2-yl)methyl)-7-fluoroimidazo[1,2-c]quinazolin-5-amine]
41 | 170 | Nc1nc2c(F)cccc2c2nc(C(=O)N3CCC4(CCN(CCc5ccc(F)cc5)C4)C3)cn12 (stereo not drawn) [Ex-281, (5-amino-7-fluoroimidazo[1,2-c]quinazolin-2-yl)(7-(4-fluorophenethyl)-2,7-diazaspiro[4.4]nonan-2-yl)methanone]
42 | 3 | CC(=O)N1CCc2ccc(Cc3cn4c(N)nc5c(F)cccc5c4n3)cc2C1 [Ex-48, 1-(7-((5-amino-7-fluoroimidazo[1,2-c]quinazolin-2-yl)methyl)-3,4-dihydroisoquinolin-2(1H)-yl)ethan-1-one]
